pIC50: −log10 of the molar value. Calls of active or inactive are those of the source. No rule for the calls is given here.
system: Saccharomyces cerevisiae lifespan shortening, growth inhibition; experiment: Saccharomyces cerevisiae growth inhibition potency – dose response (AID 849);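 also: yeast growth read as optical density after two days at 30 degrees C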

| Compound | IC50 | pIC50 |
| --- | --- | --- |
| CCC1CCCCN1C(=O)CSc1nnc(-c2ccc(OC)cc2)o1 (stereo not given) | > 100 µM (inactive) | – |
| Cc1cc(C(=O)COC(=O)c2ccc[nH]c2=O)c(C)n1-c1ccc(Br)cc1 | > 100 µM (inactive) | – |
| c1ccc(-n2c(-c3ccco3)nnc2-c2ccco2)cc1 | > 100 µM (inactive) | – |
| CC(=O)NC(CCS(C)(=O)=O)C(=O)Nc1ccc2c(c1)OCO2 (stereo not given) | > 100 µM (inactive) | – |
| NNC(=O)c1cccc(COc2ccc3c(c2)CCC3)c1 | – | 4.76 |
| O=C(Cc1cccs1)NNC(=S)NC(=O)c1ccccc1 | > 100 µM (inactive) | – |
| O=C(O)Cc1cc(I)c(Oc2ccc(O)c(I)c2)c(I)c1 | – | 4.62 |
| CC(C)(C)c1ccc(NC(=O)COC(=O)c2ccc([N+](=O)[O-])s2)cc1 | – | 4.47 |
| Cc1ccc2nc3c(nc2c1)-c1ccccc1C3=O | – | 4.52 |
| COc1ccc(Nc2cnn(-c3nc4ccccc4s3)c(=O)c2Cl)cc1 | > 100 µM (inactive) | – |
| COc1cc(C(=O)NC(=S)NNC(=O)c2cnccn2)cc(OC)c1OC | – | 4.89 |
| Cc1cc(C(=O)N/N=C/c2cccc([N+](=O)[O-])c2O)n[nH]1 | > 100 µM (inactive) | – |
| Oc1ccc(CN2CCCCC2)c2cccnc12 | – | 4.33 |
| CN1C(=O)/C(=N/OC(=O)c2ccccc2)c2ccccc21 | > 100 µM (inactive) | – |
| Cc1ccc2nc(-c3ccc(NS(C)(=O)=O)cc3)cc(-c3ccccc3)c2c1 | – | 4.36 |
| COc1ccc(CCNC(=O)c2cnn3c(C(F)F)cc(C)nc23)cc1OC | > 100 µM (inactive) | – |
| CCn1c2ccc(C)cc2c2nc3cc(C(=O)O)ccc3nc21 | – | 5.02 |
| O=C1NCCCC1C(=O)N/N=C/c1cccc(O)c1 (stereo not given) | > 100 µM (inactive) | – |
| CCOC(=O)C1C(C)N=C2SCC(=O)N2C1c1cccc(Br)c1 (stereo not given) | > 100 µM (inactive) | – |
| O=C1CC(N2CCN(c3nc4ccccc4s3)CC2)C(=O)N1Cc1cccs1 (stereo not given) | > 100 µM (inactive) | – |
| Cc1ccccc1N=Cc1cccc(O)c1O | – | 5.00 |
| O=C(NNC(=S)NC(=O)C12CC3CC(CC(C3)C1)C2)c1ccncc1 | – | 4.71 |
| Oc1c(C(Nc2nc3ccccc3s2)c2ccco2)ccc2cccnc12 (stereo not given) | > 100 µM (inactive) | – |

| Compound | IC50 | pIC50 |
| --- | --- | --- |
| COc1cc(-c2nc3ccc4ccccc4c3c3c2CCC3)ccc1O | > 100 µM (inactive) | – |
| Cc1nc(Nc2ccc(Cl)c(Cl)c2)sc1C(=O)Nc1ccccc1 | > 100 µM (inactive) | – |
| Cc1c(C(=O)O)cccc1-c1ccc(/C=N/Nc2ccc(Br)cc2)o1 | > 100 µM (inactive) | – |
| CCCCc1ccc(NS(=O)(=O)c2cccs2)cc1 | – | 4.45 |
| O=C(Nc1nc(-c2ccccn2)cs1)c1ccc(Br)s1 | – | 5.04 |
| C=CCSc1nnc2nc3c(nn12)c1cc(C)ccc1n3CC=C | > 100 µM (inactive) | – |
| O=S(=O)(Nc1ccc(-c2csc(-c3ccccc3)n2)cc1)c1ccc(F)cc1 | > 100 µM (inactive) | – |
| COc1ccc(-c2n[nH]c(C)c2-c2ccc(Cl)cc2)c(O)c1 | – | 4.48 |
| COc1ccc(C(=O)NC(=S)NNC(=O)c2cnccn2)cc1OC | – | 4.69 |
| O=C1c2ccccc2C(=O)C1c1ccc2ccccc2n1 | > 100 µM (inactive) | – |
| c1cnc2c(c1)ccc1cccnc12 | – | 4.88 |
| COc1ccc(S(=O)(=O)n2oc(=O)cc2-c2ccccc2)cc1OC | > 100 µM (inactive) | – |
| Nc1ccc(SC(F)(F)F)cc1C(=O)c1ccccc1 | > 100 µM (inactive) | – |
| CC(Nc1ccc(Br)cn1)c1cc(Cl)ccc1O (stereo not given) | > 100 µM (inactive) | – |
| COc1ccc(OC)c(-c2c3cc(O)c(=O)cc-3oc3cc(O)c(O)cc23)c1 | – | 4.52 |
| CCOc1ccc(-c2[nH]ncc2Oc2cccc(OC)c2)c(O)c1 | – | 4.64 |
| Oc1c(Cl)cc(Cl)c(Cl)c1Cc1c(O)c(Cl)cc(Cl)c1Cl | > 100 µM (inactive) | – |
| O=c1[nH][nH]cc1C=Nc1ccccc1O | > 100 µM (inactive) | – |
| N/C(Cc1ccccc1)=N\OC(=O)c1cccc2ccccc12 | – | 4.97 |
| C=CCn1c(C)cc(C(=O)CSc2nnc(NCc3ccccc3)s2)c1C | > 100 µM (inactive) | – |
| CCCCCCCCCCCCCCCC(O)C(N)CO (stereo not given) | – | 4.48 |
| CC(C)(C)c1cc(NCCCn2ccnc2)n2ncc(-c3ccc(Cl)cc3)c2n1 | > 100 µM (inactive) | – |
| COC(=O)Cn1c2ccc(C)cc2c2nc(C)sc21 | > 100 µM (inactive) | – |

| Compound | IC50 | pIC50 |
| --- | --- | --- |
| COc1ccc2c(C)nc(Nc3nc(C)c(C)c(=O)[nH]3)nc2c1 | – | 4.82 |
| Cc1ccc(-n2c(C)cc(C(=O)COC(=O)c3ccc[nH]c3=O)c2C)cc1C | – | 5.40 |
| CCSc1ncc(/C=N/Nc2ccc(Cl)cc2)n1C | – | 4.44 |
| N#CSCC(=O)c1cccc2ccccc12 | – | 5.06 |
| NC(=O)c1sc2nc(-c3ccco3)ccc2c1N | > 100 µM (inactive) | – |
| Cn1c(=O)c(C(=O)Nc2ncccn2)c(O)c2ccccc21 | – | 4.48 |
| Cc1ccc(/C(N)=N/OC(=O)c2ccc(C)cc2Cl)cc1 | – | 4.83 |
| CC(C)(C)c1ccc(-c2nc(-c3ccncc3)no2)cc1 | – | 4.64 |
| CCn1c(Sc2nc(C)nc3scc(-c4cccs4)c23)n[nH]c1=O | > 100 µM (inactive) | – |
| Cc1cc(C)nc(/N=c2/ssnc2Cl)c1 | > 100 µM (inactive) | – |
| O=C(CC(=O)c1ccccc1O)c1ccc(F)cc1 | > 100 µM (inactive) | – |
| Nc1ccc(C(=O)OCC(=O)Nc2ccc3c(c2)OCO3)cc1[N+](=O)[O-] | > 100 µM (inactive) | – |
| O=C1c2ccccc2NC(c2ccc(-c3ccc(Br)cc3)o2)N1O (stereo not given) | – | 4.60 |
| CCc1ccc(C2NC(=S)NC3=C2C(=O)N(c2ccccc2OC)C(c2ccc(CC)cc2)N3)cc1 (stereo not given) | > 100 µM (inactive) | – |
| O=[N+]([O-])c1ccc(C2Oc3ccccc3C3CC(c4ccccc4)=NN32)s1 (stereo not given) | > 100 µM (inactive) | – |
| N#CCSc1nc2ccccc2c2nc3ccccc3n12 | – | 4.53 |
| Cc1cccc(CSc2cccc3cccnc23)c1 | – | 4.48 |
| Cc1ccc2c(c1)-c1nc3ccccc3cc1C2=NC1CCCCC1 | – | 4.45 |
| Fc1ccc(-c2ccc(-c3nn4c(-c5ccco5)nnc4s3)o2)cc1 | > 100 µM (inactive) | – |
| CN1C(=O)c2cccc3c(Cl)ccc(c23)C1=O | > 100 µM (inactive) | – |
| CC1/C(=N/O)CC(c2ccccc2)N(C)C1c1ccccc1 (stereo not given) | > 100 µM (inactive) | – |
| O=C1NC(=S)N(c2ccccc2F)C(=O)/C1=C\c1cccs1 | – | 4.73 |
| O=S(=O)(Cc1ccccc1)NCc1cccnc1 | > 100 µM (inactive) | – |

| Compound | IC50 | pIC50 |
| --- | --- | --- |
| COc1ccc(/C=C2/C(=O)ON=C2c2ccccc2)cc1OC | – | 4.48 |
| c1ccc(N(c2ccccc2)c2nc(-n3ccnc3)nc(-n3ccnc3)n2)cc1 | > 100 µM (inactive) | – |
| CCCc1ccc(OCC(=O)NNC(=S)NC(=O)c2ccco2)cc1 | – | 4.82 |
| O=[N+]([O-])c1ccc(O)c2ncccc12 | – | 6.24 |
| CCCn1c(CNc2ccccc2O)nc2ccccc21 | > 100 µM (inactive) | – |
| CCCCn1c(/N=C/c2c[nH]c3ccccc23)nc2ccccc21 | > 100 µM (inactive) | – |
| O=C1OCC(CO)(CO)N=C1NNc1ccc(Cl)c(Cl)c1 | – | 5.54 |
| O=Nc1c(O)n(Cc2ccc(Cl)c(Cl)c2)c2ccccc12 | > 100 µM (inactive) | – |
| Cc1[nH]n(-c2ccccc2)c(=O)c1/C=N/Nc1nncc(-c2ccccc2)n1 | – | 4.71 |
| CCOC(=O)c1c(/N=C/c2cccc([N+](=O)[O-])c2O)sc(C)c1C | – | 4.73 |
| CC(C)(C)c1ccc(C(=O)NC(=S)NNC(=O)c2cccs2)cc1 | – | 4.37 |
| CCC(C)N1CC23C=CC(O2)C(C(=O)OC)C3C1=O (stereo not given) | > 100 µM (inactive) | – |
| O=c1[nH]c(Nc2ccccc2)cc2ccccc12 | > 100 µM (inactive) | – |
| C=CCN1C(=O)/C(=C/c2cccs2)C(=O)NC1=S | – | 4.76 |
| CCN1/C(=C/C=C/C=C/c2sc3ccccc3[n+]2CC)Sc2ccccc21 | – | 4.67 |
| O=C1ON=C(c2ccccc2)/C1=C/c1ccc(OS(=O)(=O)c2ccccc2)cc1 | – | 4.72 |
| O=C(c1ccc(Cl)cc1)c1c[nH]c(C(=O)C(Cl)(Cl)Cl)c1 | – | 4.42 |
| O=C1c2ccccc2C(=O)c2c1cccc2N1CCOCC1 | – | 4.33 |
| O=C(O)c1cc(-c2ccc(/C=N/Nc3ccc(Cl)cc3)o2)ccc1Cl | – | 4.93 |
| CC1(C)Cc2c(C#N)c(N)sc(=S)c2CO1 | > 100 µM (inactive) | – |
| CN1CCN(Cc2cc(COCc3ccccc3)c3cccnc3c2O)CC1 | – | 4.58 |
| N/C(Cc1ccc(Cl)cc1)=N\OC(=O)c1ccccc1 | – | 4.57 |
| COc1ccc(-c2nnc3c4ccccc4c(C)nn23)cc1 | > 100 µM (inactive) | – |

| Compound | IC50 | pIC50 |
| --- | --- | --- |
| CN1C(=O)C(O)(CC(=O)c2ccccc2O)c2cc(Br)ccc21 (stereo not given) | > 100 µM (inactive) | – |
| O=C(O)c1cc2ccc3ccccc3c2oc1=O | – | 4.69 |
| O=C(CC(=O)c1cc(Cl)ccc1O)c1ccccc1 | > 100 µM (inactive) | – |
| Cc1cc(N2CCN(c3cccc(C)c3C)CC2)nc(-c2ccccc2)n1 | – | 4.45 |
| O=C1C(=O)c2c(C(=O)c3ccccc3)coc2-c2ccccc21 | – | 4.87 |
| CN1CCN(C2=Cc3cc(Cl)ccc3Sc3cc(F)ccc32)CC1 | – | 4.82 |
| Cc1oc(-c2cccs2)nc1CS(=O)CC(=O)NC1CCCCCC1 (stereo not given) | > 100 µM (inactive) | – |
| Oc1c(Br)cc(Br)cc1C=Nc1ccc2c(c1)OCO2 | > 100 µM (inactive) | – |
| CN(O)/C=c1/ccc2c(n1)C(=O)C=CC=2 | – | 5.09 |
| CC(=O)/C(=N\Nc1ccc(C)cc1)N1CCOCC1 | – | 4.96 |
| O=c1oc2ccccc2c(O)c1/C=C1\C=Nc2ccccc21 | – | 4.74 |
| COc1ccccc1-c1nnc(NC(=O)C(C)SC2=NCCS2)s1 (stereo not given) | > 100 µM (inactive) | – |
| COc1ccccc1N1CCN(C(CNC(=O)c2ccco2)c2cccnc2)CC1 (stereo not given) | > 100 µM (inactive) | – |
| Cc1nn(-c2cccc(C(F)(F)F)c2)c(Cl)c1/C=N/Nc1cccc(C(=O)O)c1 | – | 4.40 |
| CCCCCC/C(C)=C1/SC(=S)NC1=O | > 100 µM (inactive) | – |
| CCCn1c(Nc2nc3ccccc3n2C)nc2ccccc21 | – | 4.36 |
| CCCCCCCCCCCCCCCC[n+]1cccc2ccccc21 | – | 6.11 |
| NNC(=O)c1ccc(COc2cccc3ccccc23)cc1 | – | 4.52 |
| CCCCN(CCCC)C(=S)N/N=C/c1c(C)[nH]n(-c2ccccc2)c1=O | – | 4.41 |
| Cc1ccc(-c2nn(C(C)(C)C)c3ncnc(N)c23)cc1 | – | 5.76 |
| CCN(CC)S(=O)(=O)c1ccc(NC(=O)CSc2cccc[n+]2[O-])cc1 | – | 4.62 |
| CCCCOc1ccc(C(=O)NNC(=S)NC(=O)CC)cc1 | – | 4.38 |
| COc1ccc(OCCNC2CCCC2)cc1 | > 100 µM (inactive) | – |

— PubChem BioAssay AID849 (SRMLSC, 2007)
